In patent US20240139149A1, “THERAPEUTIC USES OF UROLITHIN DERIVATIVES” (Vandria SA, priority 2022, published 2024):

Tests used:
AOM-induced colon tumors = assay: AOM-induced colorectal tumorigenesis, UA-containing diet; assay type: in vivo, mouse; details: FVB mice
Description: Urolithin A containing diet (2.28 g/kg) or AIN− 93G control food (Brogaarden) were given ad libitum once introduced for experimental purpose at the indicated time. Animal experiments were approved by the Regierungsprasidium Darmstadt under animal application numbers F123/1009; F123/1062 and F123/2008.
Colorectal tumors were induced by 6 consecutive weekly injections of AOM on mice fed with food containing 2.28 g/kg Urolithin A (UA diet) or with control food. The diet was introduced one-week prior the first AOM injection and maintained until the end of the experiment at ˜20-24 weeks. The colons were collected for subsequent histological analysis as described below. For subcutaneous colorectal cancers, APTK organoids were mechanistically disrupted, incubated with Accutase to generate a single cell suspension and reconstituted in PBS 20% Matrigel (Corning) for subcutaneous transplantation. Tumor sizes were measured at the indicated time after transplantation and tumor volume quantified as ½(width2×length). Urolithin A or control food regiment were initiated either one week before tumor challenge or 11 days after tumor development. Therapeutic diets were maintained throughout the experiment unless indicated otherwise. […] CD8-depleting antibodies (InvivoMab anti-mouse CD8; Hoelzel; BE0061) or isotype controls (InvivoMab rat IgG2b isotyp; Hoelzel; BE0090) were applied every three days, starting at five days after tumor initiation. To study combination efficacy with immunotherapy, mice were injected i.p. with 100 μl nVivoMAb anti-mouse PD-1 (Hoelzel; BE0146) and InVivoMab mouse IgG2b isotype control (Hoelzel; BE0086) every 2 days, starting three days after tumor injection.
For histological analysis of colon tissue, colons were paraffin embedded using the “swiss roll” technique and serially sectioned at […]. […] AOM tumor lesion size and incidence were quantified using Aperio ImageScope software.

APTK-s.c. tumors = assay: Subcutaneous APTK organoid tumors, UA diet, with TIL analysis; assay type: in vivo, mouse
Description: Tumors were minced and digested with Tumor & Tissue Dissociation Reagent (BD Horizon) for 30 min. The remaining organ pieces were filtered through a 70 m cell strainer. Cells were then washed with PBS 1% BSA and 2 mM EDTA. Immune cells were enriched on a 30%/40%/75% Percoll gradient after a 1700 rpm 17 min centrifugation. Then, tumor immune filtrates or activated T cells were stained with Fixable Viability Dye-eF780 (65-0865-14; eBioscience), αCD45-FITC (30-F11; 11-0451-85; eBioscience), αCD11b-BV650 (M1/70; 56340; BD) α-CD11c-BV785 (HL3; 563735; BD), aLy6G-BV605 (53-6.7; 563005; BD), aLy6C-AF700 (HK1.4; 128024; Biolegend), aF4/80-PE (BM8; 12-4801-82, eBioscience), aPD-L1-PECy7 (MIH5; 25-5982-80, eBioscience); or with Fixable Viability Dye-eF780 (ebioscience), αCD45-BV786 (30-F11; 564225; BD), αCD4-BUV496 (GK1.5; 564667; BD), αCD8-BV605 (100744; Biolegend), aPD1-APC (J43; 17-9985-82; eBioscience), aTIM-3-PECy7 (RMT3-23; 119715; Biolegend), aCTLA4-PE (UC10-4B9; 106305; Biolegend) and aLag3-BV421 (C9B7W; 125221, Biolegend); or with Fixable Viability Dye-eF780 (eBioscience), αCD4-FITC (H129.19; 553650; BD), αCD8-APC (53-6.7; 17-0081-83; eBioscience), αCD44-AF400 (IM7; 103026; Biolegend), αCD62L-BV785 (MEL-14; 104440; Biolegend), αSca-1-PerCP-Cy5.5 (D7; 45-5981-82; eBioscience), αCD95-PE (Jo2; 554258; BD); or with Fixable Viability Dye-eF780 (eBioscience), αCD8-BV650 (53-6.7; 563234; BD), αCD4-BUV496 (GK1.5; 564667; BD), αCD127-APC (A7R34; 17-1271-82; eBioscience), αCD95-FITC (SA367H8;152605; Biolegend), αCD44-AF400 (IM7; 103026; Biolegend), αCD62L-BV785 (MEL-14; 104440; Biolegend), αSca-1-PerCP-Cy5.5 (D7; 45-5981-82; eBioscience) followed by intracellular staining of aTCF1-PE (S33-966; 564217; BD), or PGC-1α (sc-518025; D-5; santa cruz), or aCyclinD1 (MA5-28534, DCS-6; Invitrogen) with transcription factor buffer set kit (BD Biosciences). To study cytokine expression, tumor immune infiltrates were stimulated ex vivo with 20 ng/mL PMA and 1 g/mL Ionomycin (Sigma) for 3 h in T cell activation medium with Brefeldin A (Biolegend).

[1] = tested on: CD19-CAR T cells / Nalm-6 cells; assay: CD19-CAR T cell generation in presence of UA and Nalm-6 killing; assay type: cell-based, human
mouse T lymphocytes = assay: Mitochondrial content (Mitotracker positive cells) in mouse T lymphocytes; assay type: cell-based; details: 2 μM, 72 h
Description: Splenic murine T cells were isolated from mice aged 6-20 weeks by negative selection with EasySep mouse T cell isolation kit (Stem cell) according to the manufacturer's instructions. T cell activation was initiated using CD3/CD28 activation beads (11456D; ThermoFisher Scientific) at a ratio of 25 μl dynabeads per 0.5×10^6 T-cells. Cells were activated with test compounds at 2 μM or DMSO in T cell activation Medium (RPMI (ThermoFisher Scientific) 10% FBS (South America origin), 10 mM Hepes (Sigma), 1× Non-Essential Amino Acid, 1 mM Sodium Pyruvate, 50 μM β-Mercaptoethanol, 100 U/ml penicillin, 100 μg/ml streptomycin and 2 mM Glutamax (ThermoFisher Scientific) for 72 h. For subsequent analysis, activating beads were magnetically removed prior staining.
For flow cytometric analysis of mitochondria 500 μl of Mitotracker Red (200 nM; ThermoFisher) was applied followed by surface staining.
Cell doublets and cells debris were excluded from the analysis by gating FSC-A vs FSC-H followed by SSC-A vs SSC-H dot plots and FSC-A vs SSC-A dot plots, respectively. eFluor 780 highly positive cells, i.e, dead cells, were gated out of the analysis. Data was acquired on Canto II (BD), Fortessa (BD) and Aurora (Cytek) cytometers and analyzed with FlowJo.

[2] = AOM weekly for six weeks, oral UA diet 2.28 g/kg vs control diet
[3] = C57BL/6 mice, s.c. APTK organoids, UA-supplemented diet

Compound | tumor incidence (AOM-induced colon tumors; [2]) | tumor size (AOM-induced colon tumors; [2]) | infiltration of CD3+ T cells into the colonic mucosa (AOM-induced colon tumors; AOM, oral UA diet 2.28 g/kg) | CD8+ T cell infiltration (APTK-s.c. tumors; [3]) | tumor growth (APTK-s.c. tumors; [3]) | tumor response in combination with PD-1 blockade (APTK-s.c. tumors; C57BL/6 mice, s.c. APTK tumors, UA diet plus α-PD-1) | tumor suppressive effect in Pink1−/− mice (APTK-s.c. tumors; Pink1−/− mice, s.c. APTK organoids, UA diet) | protective effect on tumor growth in Rag1−/− mice (APTK-s.c. tumors; Rag1−/− mice (no mature T and B cells), s.c. APTK organoids, UA diet) | CD4+ TSCM, dendritic cells, TAMs, MDSC subsets in tumors (APTK-s.c. tumors; UA diet vs control diet) | CD8+CD44loCD62LhiSca1hi T cells in APTK-induced tumors (APTK-s.c. tumors; UA diet vs control diet) | TCF1 expression in tumor infiltrating CD8+ T cells (APTK-s.c. tumors; UA diet vs control diet) | mitochondrial content in TIL of APTK tumors (APTK-s.c. tumors; UA diet vs control diet) | exhaustion markers PD-1, CTLA-4 and Tim3 in CD8+ T cells (APTK-s.c. tumors; UA-fed mice) | TNFα and IFNγ in tumor infiltrating CD8+ T cells (APTK-s.c. tumors; restimulated with PMA/ionomycin ex vivo) | CAR gene delivery into CD8+ cells [1] | CD19 CAR-T cell mediated killing of NALM-6 leukemia cells ([1]; 24 h co-culture) | markers of exhaustion (Tim3HiPD-1Hi CD8+CAR+) ([1]; three days after transduction) | CAR expressing TSCM cells as share of CD8+ cells ([1]; three days post transduction, upon UA exposure) | increase in the percentage of Mitotracker positive cells vs DMSO (mouse T lymphocytes) [%] | percentage of Mitotracker positive cells (mouse T lymphocytes; DMSO 44%) [%]
O=c1oc2cc(O)ccc2c2ccc(O)cc12 [UA, Urolithin A] | significant decrease | significant decrease | increased infiltration | enhanced | significantly reduced | sensitized APTK tumors to PD-1 blockade | abrogated the tumor suppressive effect | abrogated the protective effect | no change | marked increase | increased expression | increased mitochondrial content | reduction | stronger induction | did not impair | did not have a negative impact | not affected | about 60% | – | –
O=c1oc2cc(O)ccc2c2ccc(OC3CCOCC3)cc12 [compound 33, 3-hydroxy-8-((tetrahydro-2H-pyran-4-yl)oxy)-6H-benzo[c]chromen-6-one] | – | – | – | – | – | – | – | – | – | – | – | – | – | – | – | – | – | – | 19 | 52.5
